Legend:
Assay type in all cases: cell-based
[1] = system: SU86 pancreatic cancer cell line (Su.86.86); assay: Cell survival and adhesion assay (luciferase), SU86; details: 5 hours, SU86 cells overlayed onto human mesothelial cell monolayers, read-out: relative reduction in Luciferase activity, SU86 10 μM
Method: (§1) SU86 is a pancreatic cancer cell line. HT29 is a colon cancer cell line. BxPC3 is a pancreatic cell line. A2780 is an ovarian cancer cell line.
(§2) BxPc-3 and Su.86.86 pancreatic and HT-29 colon and A2780 ovarian cancer cell lines were purchased from ATCC and cultured in DMEM supplemented with 10% fetal bovine serum, glutamine, penicillin, and streptomycin. All cells were cultured at 37° C. in a humidified incubator in a 5% CO2 atmosphere. The cancer cell lines were transduced with a retrovirus containing pLuc-puro, a constitutive luciferase reporter and selected in […] media. Transient transfection of a full-length human c-FLIP construct in the vector pcDNA3 was performed as previously described. Scaife et al. Cancer Research 2002, 62: 6870-78.
(§3) Pancreatic cancer cell cultures (BxPc-3 and Su.86.86) and colon cancer (HT-29) and ovarian cancer (A2780) cells that were stably transfected with a firefly luciferase construct were transiently suspended with trypsin-PBS. 10^5 cells were overlayed onto confluent monolayers of human mesothelial cells in 96-well plates while simultaneously adding various concentrations of compounds of the invention or DMSO for 5 hours. The non-adherent cells were carefully washed away from the wells twice with 100 μl/well of blocking buffer (1% BSA in PBS) and twice again with ice-cold PBS. Adherent and surviving cells were detected by luciferase activity in a luminometer as follows. The cells were lysed in 0.1% TritonX-100, 25 mM Gly-Gly (7.8), MgSO4, 4 mM EGTA, 1 mM DTT. The total protein concentration was normalized with lysis buffer. 50 μl of cell lysate was added per well of a 96-well microtiter plate. 50 μl of luciferin substrate (Promega) was added per well and then the light output determined in a luminometer.

[2] = system: HT29 colon cancer cell line; assay: Cell survival and adhesion assay (luciferase), HT29; details: HT-29, 5 hours, HT29 cells overlayed onto human mesothelial cell monolayers, read-out: relative reduction in Luciferase activity, HT29 10 μM
Method: as §1, §2, §3

[3] = system: BxPC3 pancreatic cell line; assay: Cell survival and adhesion assay (luciferase), BxPC3; details: BXPC-3, 5 hours, BxPC3 cells overlayed onto human mesothelial cell monolayers, read-out: relative reduction in Luciferase activity, BxPC3 10 μM
Method: as §1, §2, §3

[4] = system: A2780 ovarian cancer cell line; assay: Cell survival and adhesion assay (luciferase), A2780; details: 5 hours, A2780 cells overlayed onto human mesothelial cell monolayers, read-out: relative reduction in Luciferase activity, A2780 10 μM
Method: as §1, §2, §3

SMILES | inhibition at 10 µM [1] | inhibition at 10 µM [2] | inhibition at 10 µM [3] | inhibition at 10 µM [4]
CC(C)(C)c1cccc(S(=O)(=O)/C=C/C#N)c1 [Example 54, (E)-3-(3-tert-Butyl-benzenesulfonyl)-acrylonitrile] | > 85% | < 10% | > 85% | > 85%
Cc1ccc(O)c(NC(=O)C(C)(C)c2ccc(S(=O)(=O)/C=C/C#N)cc2)c1 [Example 69, 2-[4-((E)-2-Cyano-ethenesulfonyl)-phenyl]-N-(2-hydroxy-5-methyl-phenyl)-isobutyramide] | 10 to 50% | 50 to 85% | 10 to 50% | 50 to 85%
CC(C)(c1ccc(S(=O)(=O)/C=C/C#N)cc1)c1nc2ccccc2o1 [Example 78, (E)-3-[4-(1-Benzoxazol-2-yl-1-methyl-ethyl)-benzenesulfonyl]-acrylonitrile] | 50 to 85% | > 85% | 50 to 85% | > 85%
CC(C)(C(=O)NC1CCCCC1)c1ccc(S(=O)(=O)/C=C/C#N)cn1 [Example 86, 2-[5-((E)-2-Cyano-ethenesulfonyl)-pyridin-2-yl]-N-cyclohexyl-isobutyramide] | 10 to 50% | > 85% | 50 to 85% | 10 to 50%
CC(C)(c1ccc(S(=O)(=O)/C=C/C#N)cc1)c1nnc(-c2ccccc2)o1 [Example 72, (E)-3-{4-[1-Methyl-1-(5-phenyl-[1,3,4]oxadiazol-2-yl)-ethyl]-benzenesulfonyl}-acrylonitrile] | 50 to 85% | > 85% | 50 to 85% | > 85%
CC(C)(C(=O)NCc1cccs1)c1ccc(S(=O)(=O)/C=C/C#N)cc1 [Example 15, 2-[4-((E)-2-Cyano-ethenesulfonyl)-phenyl]-N-thiophen-2-ylmethyl-isobutyramide] | 50 to 85% | < 10% | 50 to 85% | > 85%
CC(C)(C)c1cc(S(=O)(=O)/C=C/C#N)ccc1OCC(=O)NCc1ccc(F)cc1 [Example 64, 2-[2-tert-Butyl-4-((E)-2-cyano-ethenesulfonyl)-phenoxy]-N-(4-fluoro-benzyl)-acetamide] | 50 to 85% | > 85% | > 85% | > 85%
C#CCCNC(=O)C(C)(C)c1ccc(S(=O)(=O)/C=C/C#N)cc1 [Example 80, N-But-3-ynyl-2-[4-((E)-2-cyano-ethenesulfonyl)-phenyl]-isobutyramide] | 10 to 50% | > 85% | 50 to 85% | 50 to 85%
CC(C)(C(=O)NCCO)c1ccc(S(=O)(=O)/C=C/C#N)cc1 [Example 4, 2-[4-((E)-2-Cyano-ethenesulfonyl)-phenyl]-N-(2-hydroxy-ethyl)-isobutyramide] | < 10% | 10 to 50% | < 10% | < 10%
CC(C)(C(=O)NCC(F)F)c1ccc(S(=O)(=O)/C=C/C#N)cc1 [Example 11, 2-[4-((E)-2-Cyano-ethenesulfonyl)-phenyl]-N-(2,2-difluoro-ethyl)-isobutyramide] | 10 to 50% | < 10% | 10 to 50% | 10 to 50%
CC(C)(C(=O)Nc1ccccc1O)c1ccc(S(=O)(=O)/C=C/C#N)cc1 [Example 73, 2-[4-((E)-2-Cyano-ethenesulfonyl)-phenyl]-N-(2-hydroxy-phenyl)-isobutyramide] | 10 to 50% | > 85% | 50 to 85% | 50 to 85%
CN1CCN(C(=O)C(C)(C)c2ccc(S(=O)(=O)/C=C/C#N)cc2)CC1 [Example 9, (E)-3-{4-[1,1-Dimethyl-2-(4-methyl-piperazin-1-yl)-2-oxo-ethyl]-benzenesulfonyl}-acrylonitrile] | < 10% | < 10% | < 10% | < 10%
CC(C)(C(=O)NCc1ccc(Cl)cc1)c1ccc(S(=O)(=O)/C=C/C#N)cc1 [Example 14, N-(4-Chloro-benzyl)-2-[4-((E)-2-cyano-ethenesulfonyl)-phenyl]-isobutyramide] | 50 to 85% | 10 to 50% | 50 to 85% | > 85%
CC(C)(C(=O)N1CCOCC1)c1ccc(S(=O)(=O)/C=C/C#N)cc1 [Example 3, (E)-3-[4-(1,1-Dimethyl-2-morpholin-4-yl-2-oxo-ethyl)-benzenesulfonyl]-acrylonitrile] | < 10% | < 10% | 10 to 50% | 10 to 50%
CC(C)(C(=O)NC1CCOCC1)c1ccc(S(=O)(=O)/C=C/C#N)cc1 [Example 13, 2-[4-((E)-2-Cyano-ethenesulfonyl)-phenyl]-N-(tetrahydro-pyran-4-yl)-isobutyramide] | < 10% | 10 to 50% | < 10% | < 10%
CC(C)CNC(=O)C(C)(C)c1ccc(S(=O)(=O)/C=C/C#N)cc1 [Example 8, 2-[4-((E)-2-Cyano-ethenesulfonyl)-phenyl]-N-isobutyl-isobutyramide] | 50 to 85% | 10 to 50% | 50 to 85% | 50 to 85%
CC(C)(C)c1ccc2cc(S(=O)(=O)/C=C/C#N)ccc2n1 [Example 70, (E)-3-(2-tert-Butyl-quinoline-6-sulfonyl)-acrylonitrile] | 50 to 85% | > 85% | 50 to 85% | > 85%
CC(C)(C(=O)NCC#Cc1ccccc1)c1ccc(S(=O)(=O)/C=C/C#N)cc1 [Example 71, 2-[4-((E)-2-Cyano-ethenesulfonyl)-phenyl]-N-(3-phenyl-prop-2-ynyl)-isobutyramide] | 50 to 85% | > 85% | > 85% | > 85%
COc1cccc(NC(=O)COc2ccc(S(=O)(=O)/C=C/C#N)cc2C(C)(C)C)c1 [Example 65, 2-[2-tert-Butyl-4-((E)-2-cyano-ethenesulfonyl)-phenoxy]-N-(3-methoxy-phenyl)-acetamide] | 50 to 85% | > 85% | 50 to 85% | > 85%
CC(C)(C)c1cc(S(=O)(=O)/C=C/C#N)ccc1OCC(=O)O [Example 61, [2-tert-Butyl-4-((E)-2-cyano-ethenesulfonyl)-phenoxy]-acetic acid] | < 10% | < 10% | 10 to 50% | < 10%
CC(C)(C(=O)NCC1CC1)c1ccc(S(=O)(=O)/C=C/C#N)cc1 [Example 10] | 10 to 50% | < 10% | 10 to 50% | 50 to 85%
CC(C)(C(=O)O)c1ccc(S(=O)(=O)/C=C/C#N)cc1 [Example 1, 2-[4-((E)-2-Cyano-ethenesulfonyl)-phenyl]-2-methyl-propionic acid] | 10 to 50% | 10 to 50% | < 10% | < 10%
